According to ChEMBL document CHEMBL4819001, “Discovery of tetrahydroquinolines and benzomorpholines as novel potent RORγt agonists” (Eur J Med Chem, 2021):

Experiments:
[1] = target: T1, Nuclear receptor ROR-gamma (Homo sapiens) (UniProt P51449); assay: Inverse agonist activity at human RORgammat LBD expressed in HEK293T cells assessed inhibition of Gal4 reporter gene transcription measured after 16 to 20 hrs by luciferase reporter gene assay relative to control; assay type: cell-based; details: filed as inverse agonist, time 16-20 hrs
T1 sequence (whole entry): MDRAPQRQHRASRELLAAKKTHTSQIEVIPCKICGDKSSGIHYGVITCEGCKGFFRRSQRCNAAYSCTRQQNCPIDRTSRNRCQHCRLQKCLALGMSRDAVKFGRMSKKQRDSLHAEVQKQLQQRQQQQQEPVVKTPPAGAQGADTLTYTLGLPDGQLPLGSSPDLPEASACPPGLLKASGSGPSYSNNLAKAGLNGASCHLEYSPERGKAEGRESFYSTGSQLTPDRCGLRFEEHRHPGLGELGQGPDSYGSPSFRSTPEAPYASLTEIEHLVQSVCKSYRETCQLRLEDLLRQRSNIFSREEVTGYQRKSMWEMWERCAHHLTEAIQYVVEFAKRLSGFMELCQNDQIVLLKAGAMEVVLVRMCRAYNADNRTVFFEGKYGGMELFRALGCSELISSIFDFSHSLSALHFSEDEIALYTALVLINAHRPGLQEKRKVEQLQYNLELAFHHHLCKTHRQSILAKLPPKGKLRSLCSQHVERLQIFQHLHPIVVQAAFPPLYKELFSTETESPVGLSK

[2] = target: T2, Nuclear receptor ROR-gamma (Homo sapiens, UniProt P51449); assay: Inverse agonist activity at APC-labelled RORgammat (unknown origin) assessed as inhibition of biotinylated SRC recruitment measured after 1 hr by dual FRET assay
T2 sequence (P51449 whole entry): T1 sequence (whole entry)

[3] = target: T2, Nuclear receptor ROR-gamma; assay: Inverse agonist activity at human RORgammat LBD expressed in HEK293T cells assessed inhibition of Gal4 reporter gene transcription measured after 16 to 20 hrs by luciferase reporter gene assay; assay type: cell-based
[4] = target: T2, Nuclear receptor ROR-gamma; assay: Agonist activity at APC-labelled RORgammat (unknown origin) assessed as biotinylated SRC recruitment measured after 1 hr by dual FRET assay
[5] = target: T3, Nuclear receptor ROR-gamma (Mus musculus) (UniProt P51450); assay: Agonist activity at RORgammat in mouse CD4+ Th17 cells assessed as promotion of IL17 production at 300 nM measured after 4 days by intracellular staining based flow cytometry; assay type: cell-based; details: filed as agonist, time 4.0 day
T3 sequence (whole entry): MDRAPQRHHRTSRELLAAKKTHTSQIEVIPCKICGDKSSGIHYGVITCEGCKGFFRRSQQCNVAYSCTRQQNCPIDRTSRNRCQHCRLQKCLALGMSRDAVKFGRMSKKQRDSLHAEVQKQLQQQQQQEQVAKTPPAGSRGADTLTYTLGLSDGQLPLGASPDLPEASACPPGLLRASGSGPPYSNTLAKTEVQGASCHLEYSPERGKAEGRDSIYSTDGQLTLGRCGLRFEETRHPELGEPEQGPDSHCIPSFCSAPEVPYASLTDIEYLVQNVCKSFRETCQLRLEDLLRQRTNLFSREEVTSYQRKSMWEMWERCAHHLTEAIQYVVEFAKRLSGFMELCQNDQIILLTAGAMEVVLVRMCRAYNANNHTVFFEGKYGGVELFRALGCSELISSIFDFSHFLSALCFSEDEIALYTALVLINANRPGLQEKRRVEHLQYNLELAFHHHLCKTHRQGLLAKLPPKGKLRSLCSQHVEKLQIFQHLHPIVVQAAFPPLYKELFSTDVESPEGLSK

[6] = target: T2, Nuclear receptor ROR-gamma; assay: Agonist activity at human RORgammat LBD expressed in HEK293T cells assessed increase in Gal4 reporter gene transcription measured after 16 to 20 hrs by luciferase reporter gene assay; assay type: cell-based
[7] = target: T3, Nuclear receptor ROR-gamma (Mus musculus); assay: Agonist activity at RORgammat in mouse CD4+ Th17 cells assessed as promotion of IL17 production at 30 nM measured after 4 days by intracellular staining based flow cytometry; assay type: cell-based; details: filed as agonist, time 4.0 day

SMILES | EC50 [4] [nM] | further results
CCS(=O)(=O)c1ccc(CC(=O)Nc2ccc(CC(=O)N3CCCc4ccc(CC(C)C)cc43)cc2)cc1 |  | Imax [1]: 101%; IC50 [2]: 31.5 nM; IC50 [3]: 151 nM
CCS(=O)(=O)c1ccc(CC(=O)Nc2ccc(CCN3CCCc4ccc(C)cc43)cc2)cc1 | 16.7 | 
CCS(=O)(=O)c1ccc(CC(=O)Nc2ccc(CCN3CCCc4ccc(C=C(C)C)cc43)cc2)cc1 | 5.3 | 
CCS(=O)(=O)c1ccc(CNC(=O)c2ccc(CCN3CCCc4ccc(CC(C)C)cc43)cc2)nc1 | 8.9 | Activity [5]: 104%; EC50 [6]: 242 nM; Activity [7]: 56.3%
CCS(=O)(=O)c1ccc(CNC(=O)c2ccc(CCN3CCOc4ccc(CC(C)C)cc43)cc2)nc1 | 7.1 | 
CCS(=O)(=O)c1ccc(CNC(=O)c2ccc(CCN3CCCc4ccc(OC5CCC5)cc43)cc2)nc1 | 12.2 | 
CC(Oc1ccc2c(c1)N(CCc1ccc(NC(=O)Cc3ccc(S(C)(=O)=O)cc3)cc1)CCO2)C(F)(F)F (centres undefined) | 4.4 | 
CCS(=O)(=O)c1ccc(CC(=O)Nc2ccc(CCN3CCCc4ccc(OC5COC5)cc43)cc2)cc1 | 6.6 | 
CCS(=O)(=O)c1ccc(CC(=O)Nc2ccc(CCN3CCCc4ccc(C(C)C)cc43)cc2)cc1 | 22.1 | 
CCS(=O)(=O)c1ccc(CNC(=O)Nc2ccc(CCN3CCCc4ccc(CC(C)C)cc43)cc2)cc1 | 25.9 | 
CCS(=O)(=O)c1ccc(CC(=O)Nc2ccc(CCN3CCCc4ccc(CC(C)C)cc43)c(F)c2)cc1 | 13 | 
CC(C)Oc1ccc2c(c1)N(CCc1ccc(C(=O)NCc3ccc(S(C)(=O)=O)cn3)cc1)CCO2 | 7.5 | Activity [5]: 59.4%; EC50 [6]: 107 nM; Activity [7]: 45.2%
CCS(=O)(=O)c1ccc(CC(=O)Nc2ccc(CCN3CCCc4ccc(F)cc43)cc2)cc1 | 11.5 | 
CCS(=O)(=O)c1ccc(CC(=O)Nc2ccc(CCN3CCCc4ccc(CC5CC5)cc43)cc2)cc1 | 12.8 | 
CCS(=O)(=O)c1ccc(CC(=O)Nc2ccc(CCN3CCCc4ccccc43)cc2)cc1 | 21.5 | 
CCS(=O)(=O)c1ccc(CNC(=O)c2ccc(CCN3CCOc4ccc(OC(C)C)cc43)cc2)nc1 | 4.6 | EC50 [6]: 135 nM
CCS(=O)(=O)c1ccc(CC(=O)Nc2ccc(CCN3CCCc4ccc(OC5CCC5)cc43)cc2)cc1 | 15.6 | 
CCS(=O)(=O)c1ccc(C(CO)NC(=O)c2ccc(CCN3CCCc4ccc(CC(C)C)cc43)cc2)cc1 (centres undefined) | 20.9 | 
CS(=O)(=O)c1ccc(CC(=O)Nc2ccc(CCN3CCOc4ccc(C(O)(C(F)(F)F)C(F)(F)F)cc43)cc2)cc1 |  | IC50 [2]: 14.6 nM
CCS(=O)(=O)c1ccc(CNC(=O)c2ccc(CCN3CCCc4ccc(OC5COC5)cc43)cc2)nc1 | 7.7 | 
CCS(=O)(=O)c1ccc(CNC(=O)c2ccc(CCN3CCCc4ccc(OC(C)C)cc43)cc2)nc1 | 8.9 | 
CC(C)Oc1ccc2c(c1)N(CCc1ccc(NC(=O)Cc3ccc(S(C)(=O)=O)cc3)cc1)CCO2 | 4.4 | 
CS(=O)(=O)c1ccc(CC(=O)Nc2ccc(CCN3CCOc4ccc(C(F)(C(F)(F)F)C(F)(F)F)cc43)cc2)cc1 | 46 | 
CCS(=O)(=O)c1ccc(CC(=O)Nc2ccc(CCN3CCCc4ccc(CC(C)(C)C)cc43)cc2)cc1 | 30.3 | 
CCS(=O)(=O)c1ccc(CC(=O)Nc2ccc(CCN3CCOc4ccc(OC(C)C)cc43)cc2)cc1 | 7.3 | 
